The values that follow come from patent US7132568B2, “Aspartyl protease inhibitors” (Sunesis Pharmaceuticals, Inc., priority 2002, dated 2006).

For series [1], the system named is H4 neuroglioma cells stably transfected with APP (H4 β695wt). Description: Cell-based Aβ secretion assay (sandwich ELISA) in H4 cells. The note with it: Homo sapiens. An excerpt:
This example describes an illustrative set of cell-based assays for testing the ability of the compounds of the present invention to inhibit the secretion of the Aβ peptide from cells expressing high levels of the human amyloid precursor protein (“APP”).
A representative set of such cells include A-204 rhabdomyosarcoma cells, human embryonic kidney 293 cells transiently transfected with APP, Chinese hamster ovary cells stably transfected with APP (CHO2B7), and H4 neuroglioma cells stably transfected with APP (H4 β695wt). The A-204 cells and HEK 293 cells were obtained from ATCC. For HEK 293 transient transfections, a pcDNA3 plasmid containing the human APP gene was obtained from Invitrogen, and cells were transfected with FuGENE 6 transfection reagent (Roche) following manufacturer's protocols. The CHO2B7 and H4 β695 wt lines were obtained from Mayo Clinic (J. Neuroscience Methods 108(2): 171–9 (2001)). […]
In the assay, cells were pre-treated with compounds for 1–2 hours to “wash out” any Aβ in the secretory pathway prior to incubation with compounds for the conditioning period required to generate detectable concentrations of Aβ. The production of secreted Aβ in cultured cells was monitored by sandwich ELISA, using the anti-Aβ monoclonal antibodies 6E10 and 4G8 (Signet Laboratories). […]

Series [2] in a line: Metabolic stability in human liver microsomes. The format is in vitro ADME. The note with it: pH 7.4. As for the experimental part:
Metabolic stability was determined by incubating the compounds with human liver microsomes (100 μg/ml) in 100 mM Tris buffer pH 7.4 for 5 minutes at 37° C. Metabolic reactions were started by addition of NADPH to give a final concentration of […]. Reactions were stopped after 30 and 60 minutes by addition of acetonitrile. Protein was precipitated by centrifugation (3000 rpm×10 min) then supernatants were analyzed for remaining parent compound by LC/MS/MS.

The target in a further series is Cat D (Homo sapiens, UniProt P07339). In words: Cat D Ki determination (DABCYL/EDANS substrate). Type of series: biochemical. As for the experimental part:
The Ki determination for Cat D was performed using the assay conditions derived from Haque et al., J. Med. Chem. 42: 1428–1440 (1999) and the following substrate: DABCYL-GLu-Arg-Nle-Phe-Leu-Ser-Phe-Pro-EDANS where Nle is norleucine and DABCYL and EDANS are as previously defined.

The nature of series [3]: Plasma stability in human plasma. The format is in vitro ADME. The note with it: 37° C. As for the experimental part:
Plasma stability was determined by incubating the compounds in human plasma at a concentration of 1 μM at 37° C. for 0, 30 and 60 minutes. Reactions were stopped by addition of acetonitrile. Protein was precipitated by centrifugation (3000 rpm×10 min) then supernatants were analyzed for remaining parent compound by LC/MS/MS.

Each structure is given as a SMILES string.

Sequence of Cat D (P07339 65-412): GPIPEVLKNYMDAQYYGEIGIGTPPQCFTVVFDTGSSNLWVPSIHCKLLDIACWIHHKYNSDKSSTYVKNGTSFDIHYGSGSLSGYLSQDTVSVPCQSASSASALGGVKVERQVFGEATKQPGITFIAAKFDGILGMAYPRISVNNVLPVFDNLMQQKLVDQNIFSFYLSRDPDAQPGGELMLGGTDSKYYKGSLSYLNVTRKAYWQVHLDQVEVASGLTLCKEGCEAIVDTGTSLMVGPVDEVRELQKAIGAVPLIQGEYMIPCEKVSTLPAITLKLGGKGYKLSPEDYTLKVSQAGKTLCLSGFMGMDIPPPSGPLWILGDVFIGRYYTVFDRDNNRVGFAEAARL

Take `CCCN(CCC)C(=O)c1cccc(C(=O)N[C@@H](CC(C)C)[C@@H](N)C[C@@H](C)C(=O)N[C@H](C(=O)NCc2ccccc2)C(C)C)c1` [R = NH2]: the IC50 in series [1] was determined as 0.74 µM. This compound also showed a recovery at 60 min in series [2] of 43%. This compound had a Ki on Cat D of 0.61 µM. Also, the “preference for BACE over Cat D” value at Cat D (Cat D Ki versus BACE Ki) is listed as “over a three fold preference for BACE over Cat D”. In series [3], this compound came in with a recovery at 1 h, 1 μM of 100%.

Turning to `CCCN(CCC)C(=O)c1cccc(C(=O)N[C@@H](CC(C)C)[C@@H](O)C[C@@H](C)C(=O)N[C@H](C(=O)NCc2ccccc2)C(C)C)c1` [R = OH], half-maximal inhibition in series [1] (IC50) was put at 2 µM. In series [2], this compound displayed a recovery at 60 min of 0%. The Ki at Cat D came to 0.02 µM. Also, the “preference for Cat D over BACE” value on Cat D (BACE Ki versus Cat D Ki) worked out at 7.5 fold. Besides, in series [3], the recovery at 1 h, 1 μM turned out to be 100%.
